Measurements: publication PMC5608758, “A brain-targeting lipidated peptide for neutralizing RNA-mediated toxicity in Polyglutamine Diseases” (Scientific Reports, 2017)

Key:
[1] = test system: pre-rRNA in DsRed CAG100 flies; test: Real-time PCR of pre-rRNA level in fly heads; type: in vivo, Drosophila; settings: 1 μM peptide, 12 day-old adult fly heads
Method: RNA was extracted from cells or ten 12 day-old adult fly heads by Trizol reagent (Life Technologies), and 1 μg of purified RNA was then used for reverse-transcription using the ImPromII™ Reverse Transcription System (Promega). Random hexamer (Roche) was used as primers in reverse transcription. Taqman gene expression assays were performed on an ABI 7500 Real-time PCR system and data were analyzed as previously described. The following probes were used: pre-45s rRNA (Assay ID: AILJIZM), pre-rRNA (Assay ID: AIMSG5U), Drosophila GAPDH (Assay ID: Dm01841186) and human actin (Assay ID: Hs99999903_m1). Each experiment was repeated at least 3 times.

DsRed CAG100 Drosophila = test: Pseudopupil assay of retinal degeneration; type: in vivo; settings: 1 µM peptide fed to third instar larvae for 2 hr in 2% sucrose; 12 day-old adult flies; mean ± S.E.M.
Method: Flies were raised at 21.5 °C on cornmeal medium supplemented with dry yeast. Fly lines bearing UAS-DsRed CAG0 and UAS-DsRed CAG100 were kind gifts of Professor Nancy Bonini (University of Pennsylvania, USA). The gmr-GAL4 fly line was obtained from Bloomington Drosophila Stock Center. For pseudopupil assay, third instar larvae were fed with various amount of respective peptides dissolved in 2% sucrose solution for 2 hr and then continued to culture in standard fly food at 21.5 °C[38]. Pseudopupil assay was performed on 12 day-old adult flies as mentioned previously. Images were captured by SPOT Insight CCD camera controlled by the SPOT Advanced software (Diagnostic instruments Inc.). Image processing was performed using the Adobe Photoshop CS software (Adobe). Each experiment was repeated at least 3 times (n = 10 fly heads), and consistent results were obtained. For viability test of wild-type flies from egg to adult stage, eggs born within 5 hr were collected and cultured in fly food containing 10 or 50 μM of respective peptides at 21.5°C. Viability from egg-to-adult was calculated as the number of adult flies collected divided by the number of eggs examined. Each experiment was repeated for three times (at least 130 eggs were examined in each group). Two batches of independently synthesized peptides were used in the experiments.

With Ac-DGKSKGIAYIEFK-NH2 [P3V8] the pre-rRNA level [1] was “fully recovered to the DsRed CAG0 control level” and the pseudopupil score (DsRed CAG100 Drosophila) was 4.32 ± 0.25.
